Test results: US20240262803A1, “COMPOUNDS, COMPOSITIONS AND METHODS OF TREATING DISORDERS” (Chungdu Anticancer Bioscience Ltd, priority 2021, published 2024)
Like-named read-outs stand apart in the source and are kept apart here.

Tests used:
Format in all cases: cell-based
[1] = system: liver cancer cell line T2 HCC; test: Minimal effective concentration that elicits polyploidy, T2 HCC; settings: Mus musculus, read-out: MECP: Minimal effective concentration that elicits polyploidy
RPEMYC^H2B-GFP cells [2] = test: Mechanism-informed phenotypic screening assay (mitotic arrest, polyploidy; GE IN-Cell Analyzer 2000); settings: 20 nM to 20 μM, 24, 48 or 72 hours, read-out: Min. Effective conc. for polyploidy (≥5%)
Procedure, shortened: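 RPEMYC^H2B-GFP cells expressing Histone 2B-EGFP were treated with compounds at 20 nM to 20 μM. Mitotic arrest and DNA content were imaged at 24, 48 or 72 h. Minimal effective concentrations eliciting polyploidy are given as letter bins.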

[3] = system: cervical cancer cell line Hela; test: MTT assay of cellular proliferation, Hela; settings: Homo sapiens, read-out: EC50: Concentration that inhibits 50% of proliferation
Procedure, shortened: (§1)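 EC50 values come from optical density at 570 nm of solubilized MTT formazan, added for 3˜4 h after compound exposure. Cells in DMEM with 5% FBS were treated at 1 nM to 10 μM once 20˜30% confluent.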

[4] = system: lung cancer cell line A549; test: MTT assay of cellular proliferation, A549; settings: Homo sapiens, read-out: EC50: Concentration that inhibits 50% of proliferation
Procedure, shortened: as §1

[5] = system: lung cancer cell line NCI-H23; test: Minimal effective concentration that elicits polyploidy, NCI-H23; settings: Homo sapiens, read-out: MECP: Minimal effective concentration that elicits polyploidy
[6] = system: lung cancer cell line NCI-H23; test: MTT assay of cellular proliferation, NCI-H23; settings: Homo sapiens, read-out: EC50: Concentration that inhibits 50% of proliferation
Procedure, shortened: as §1

RPEMYC^H2B-GFP cells [7] = test: Mechanism-informed phenotypic screening assay (mitotic arrest, polyploidy; GE IN-Cell Analyzer 2000); settings: 20 nM to 20 μM, 24, 48 or 72 hours, read-out: Mitotic Arrest (≥5%)
SW480 = test: Minimal effective concentration that elicits polyploidy, SW480; settings: Homo sapiens, read-out: MECP: Minimal effective concentration that elicits polyploidy
[8] = system: breast cancer cell line MDA-MB-231; test: Minimal effective concentration that elicits polyploidy, MDA-MB-231; settings: Homo sapiens, read-out: MECP: Minimal effective concentration that elicits polyploidy
[9] = system: colon cancer cell line SW460; test: MTT assay of cellular proliferation, SW460; settings: Homo sapiens, SW480; read-out: EC50: Concentration that inhibits 50% of proliferation
Procedure, shortened: as §1

[10] = system: colon cancer cell line HCT116; test: MTT assay of cellular proliferation, HCT116; settings: Homo sapiens, HCT-116, read-out: EC50: Concentration that inhibits 50% of proliferation
Procedure, shortened: as §1

[11] = system: breast cancer cell line MDA-MB-231; test: MTT assay of cellular proliferation, MDA-MB-231; settings: Homo sapiens, read-out: EC50: Concentration that inhibits 50% of proliferation
Procedure, shortened: as §1

[12] = system: cervical cancer cell line Hela; test: Minimal effective concentration that elicits polyploidy, Hela; settings: Homo sapiens, read-out: MECP: Minimal effective concentration that elicits polyploidy
[13] = system: lung cancer cell line A549; test: Minimal effective concentration that elicits polyploidy, A549; settings: Homo sapiens, read-out: MECP: Minimal effective concentration that elicits polyploidy
[14] = system: gastric cancer cell line NCI-N87; test: MTT assay of cellular proliferation, NCI-N87; settings: Homo sapiens, read-out: EC50: Concentration that inhibits 50% of proliferation
Procedure, shortened: as §1

[15] = system: liver cancer cell line T2 HCC; test: MTT assay of cellular proliferation, T2 HCC; settings: Mus musculus, read-out: EC50: Concentration that inhibits 50% of proliferation
Procedure, shortened: as §1

[16] = system: colon cancer cell line HCT116; test: Minimal effective concentration that elicits polyploidy, HCT116; settings: Homo sapiens, HCT-116, read-out: MECP: Minimal effective concentration that elicits polyploidy
[17] = system: gastric cancer cell line NCI-N87; test: Minimal effective concentration that elicits polyploidy, NCI-N87; settings: Homo sapiens, read-out: MECP: Minimal effective concentration that elicits polyploidy

Compound	EC50 [3]	EC50 [4]	EC50 [6]	EC50 [9]	EC50 [10]	EC50 [11]	EC50 [14]	EC50 [15]	minimal effective concentration [1]	minimal effective concentration (RPEMYC^H2B-GFP cells [2])	minimal effective concentration [5]	minimal effective concentration (RPEMYC^H2B-GFP cells [7])	minimal effective concentration (SW480)	minimal effective concentration [8]	minimal effective concentration [12]	minimal effective concentration [13]	minimal effective concentration [16]	minimal effective concentration [17]
COc1cc(OC)cc(Oc2ncccc2-c2ccnc(C)c2)c1 [Compound 42, 2-(3,5-dimethoxyphenoxy)-2′-methyl-3,4′-bipyridine]	1 to 1000 nM	1 to 1000 nM	1 to 1000 nM	1 to 1000 nM	1 to 1000 nM	1 to 1000 nM	1 to 1000 nM	1 to 1000 nM	0.001 to 1 µM	1 µM	0.001 to 1 µM	1 µM	0.001 to 1 µM	0.001 to 1 µM	0.001 to 1 µM	0.001 to 1 µM	0.001 to 1 µM	0.001 to 1 µM
COc1cc(NC(C)=O)cc(Oc2ncccc2-c2ccnc(C)c2)c1 [Compound 43, N-(3-methoxy-5-((2′-methyl-[3,4′-bipyridin]-2-yl)oxy)phenyl)acetamide]	1 to 1000 nM	1 to 1000 nM	1 to 1000 nM	1 to 1000 nM	1 to 1000 nM	1 to 1000 nM	1 to 1000 nM	1 to 1000 nM	0.001 to 1 µM	1 µM	0.001 to 1 µM	1 µM	0.001 to 1 µM	0.001 to 1 µM	0.001 to 1 µM	0.001 to 1 µM	0.001 to 1 µM	0.001 to 1 µM
CNC(=O)c1cc(OC)cc(Oc2ncccc2-c2ccnc(Cl)c2)c1 [Compound 45, 3-((2′-chloro-[3,4′-bipyridin]-2-yl)oxy)-5-methoxy-N-methylbenzamide]	1 to 1000 nM	1 to 1000 nM	1 to 1000 nM	1 to 1000 nM	1 to 1000 nM	1 to 1000 nM	1 to 1000 nM	1 to 1000 nM	0.001 to 1 µM	1 µM	0.001 to 1 µM	1 µM	0.001 to 1 µM	0.001 to 1 µM	0.001 to 1 µM	0.001 to 1 µM	0.001 to 1 µM	0.001 to 1 µM
COc1cc(NC(C)=O)cc(Oc2ncccc2-c2ccnc(Cl)c2)c1 [Compound 46, N-(3-((2′-chloro-[3,4′-bipyridin]-2-yl)oxy)-5-methoxyphenyl)acetamide]	1 to 1000 nM	1 to 1000 nM	1 to 1000 nM	1 to 1000 nM	1 to 1000 nM	1 to 1000 nM	1 to 1000 nM	1 to 1000 nM	0.001 to 1 µM	1 µM	0.001 to 1 µM	1 µM	0.001 to 1 µM	0.001 to 1 µM	0.001 to 1 µM	0.001 to 1 µM	0.001 to 1 µM	0.001 to 1 µM
COC(=O)c1cc(OC)cc(Oc2nccnc2-c2cccnc2)c1 [Compound 52, methyl 3-methoxy-5-((3-(pyridin-3-yl)pyrazin-2-yl)oxy)benzoate]	1 to 1000 nM	1000 to 10000 nM	1 to 1000 nM	1 to 1000 nM	1 to 1000 nM	1 to 1000 nM	1 to 1000 nM	1 to 1000 nM	0.001 to 1 µM	1 µM	0.001 to 1 µM	1 µM	0.001 to 1 µM	0.001 to 1 µM	0.001 to 1 µM	0.001 to 1 µM	0.001 to 1 µM	0.001 to 1 µM
COc1cc(OC)cc(Oc2ncccc2-c2cc(C)ncn2)c1 [Compound 63, 4-(2-(3,5-dimethoxyphenoxy)pyridin-3-yl)-6-methylpyrimidine]	1 to 1000 nM	1 to 1000 nM	1 to 1000 nM	1 to 1000 nM	1 to 1000 nM	1 to 1000 nM	1 to 1000 nM	1 to 1000 nM	0.001 to 1 µM	1 µM	0.001 to 1 µM	1 µM	0.001 to 1 µM	0.001 to 1 µM	0.001 to 1 µM	0.001 to 1 µM	0.001 to 1 µM	0.001 to 1 µM

Continued, in another order:

EC50 [3]	EC50 [4]	EC50 [6]	EC50 [9]	EC50 [10]	EC50 [11]	EC50 [14]	EC50 [15]	Compound	minimal effective concentration [1]	minimal effective concentration (RPEMYC^H2B-GFP cells [2])	minimal effective concentration [5]	minimal effective concentration (RPEMYC^H2B-GFP cells [7])	minimal effective concentration (SW480)	minimal effective concentration [8]	minimal effective concentration [12]	minimal effective concentration [13]	minimal effective concentration [16]	minimal effective concentration [17]
1 to 1000 nM	1 to 1000 nM	1 to 1000 nM	1 to 1000 nM	1 to 1000 nM	1 to 1000 nM	1 to 1000 nM	1 to 1000 nM	CNC(=O)c1cc(Oc2ncccc2-c2ccnc(C)c2)cc(OC(F)(F)F)c1 [Compound 39, N-methyl-3-((2′-methyl-[3,4′-bipyridin]-2-yl)oxy)-5-(trifluoromethoxy)benzamide]	0.001 to 1 µM	1 µM	0.001 to 1 µM	1 µM	0.001 to 1 µM	0.001 to 1 µM	0.001 to 1 µM	0.001 to 1 µM	0.001 to 1 µM	0.001 to 1 µM
1 to 1000 nM	1 to 1000 nM	1 to 1000 nM	1 to 1000 nM	1 to 1000 nM	1 to 1000 nM	1 to 1000 nM	1 to 1000 nM	COc1cc(Oc2ncccc2-c2ccnc(C)c2)cc(C(F)(F)F)c1 [Compound 40, 2-(3-methoxy-5-(trifluoromethyl)phenoxy)-2′-methyl-3,4′-bipyridine]	0.001 to 1 µM	1 µM	0.001 to 1 µM	1 µM	0.001 to 1 µM	0.001 to 1 µM	0.001 to 1 µM	0.001 to 1 µM	0.001 to 1 µM	0.001 to 1 µM
1 to 1000 nM	1 to 1000 nM	1 to 1000 nM	1 to 1000 nM	1 to 1000 nM	1 to 1000 nM	1 to 1000 nM	1 to 1000 nM	COc1cc(Oc2ncccc2-c2ccnc(C)c2)cc(-n2cccn2)c1 [Compound 41, 2-(3-methoxy-5-(1H-pyrazol-1-yl)phenoxy)-2′-methyl-3,4′-bipyridine]	0.001 to 1 µM	1 µM	0.001 to 1 µM	1 µM	0.001 to 1 µM	0.001 to 1 µM	0.001 to 1 µM	0.001 to 1 µM	0.001 to 1 µM	0.001 to 1 µM
